Laboratory results published in ChEMBL document CHEMBL1201862, “PubChem BioAssay data set” (2004).
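Values below derive from 48-hour exposures of cells grown in 96-well plates, with endpoints linearly interpolated between the two concentrations bracketing the appropriate inhibition level. Here, GI50 denotes the concentration required for 50% inhibition of growth.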 Calls of active or inactive are those of the source. Cut-off read from the data, not from the text of the source: active = GI50 up to about 1.1 µM and inactive = higher.

Tests used:
Experiment in all cases: NCI-60 cell line screen, 48 h
[1] = system: LOX IMVI
[2] = system: NCI-H23
[3] = system: SR
[4] = system: EKVX
[5] = system: HOP-18
[6] = system: HT-29
[7] = system: SK-OV-3
[8] = system: SK-MEL-28
[9] = system: HCT-15
[10] = system: HCT-116
[11] = system: RXF 393
[12] = system: CCRF-CEM
[13] = system: M19-MEL
[14] = system: ACHN
[15] = system: MOLT-4
[16] = system: NCI-H460
[17] = system: K562
[18] = system: KM-20L2
[19] = system: KM12
[20] = system: DLD-1
[21] = system: A549
[22] = system: SK-MEL-5
[23] = system: COLO 205
[24] = system: UO-31
[25] = system: OVCAR-3
[26] = system: UACC-257
[27] = system: SN12C
[28] = system: Malme-3M
[29] = system: RPMI-8226
[30] = system: A498
[31] = system: SNB-75
[32] = system: NCI-H522
[33] = system: NCI-H226
[34] = system: DMS-273
[35] = system: TK-10
[36] = system: U-251
[37] = system: UACC-62
[38] = system: OVCAR-8
[39] = system: OVCAR-4
[40] = system: XF498
[41] = system: SF-268
[42] = system: SF-539
[43] = system: M14
[44] = system: HOP-62
[45] = system: LXFL 529
[46] = system: OVCAR-5
[47] = system: SNB-78
[48] = system: SW-620
[49] = system: SK-MEL-2
[50] = system: IGROV-1
[51] = system: 786-0
[52] = system: SF-295
[53] = system: CAKI-1
[54] = system: HL-60
[55] = system: HOP-92

With `c1ccc2c(CNCCCCCCCCCCCCNCc3cccc4ccccc34)cccc2c1` the GI50 [1] was 1.22 µM (inactive), the GI50 [2] was 1.51 µM (inactive) and the GI50 [3] was 1.11 µM (active). For the same compound, the GI50 [4] was 3.1 µM (inactive), the GI50 [5] was 2.84 µM (inactive) and the GI50 [6] was 1.64 µM (inactive). For the same compound, the GI50 [7] was 13.3 µM (inactive), the GI50 [8] was 1.95 µM (inactive) and the GI50 [9] was 1.66 µM. The GI50 [10] was 1.61 µM (inactive), the GI50 [11] was 1.36 µM (inactive) and the GI50 [12] was 1.26 µM (inactive). The GI50 [13] was 1.81 µM (inactive), the GI50 [14] was 1.91 µM (inactive) and the GI50 [15] was 1.22 µM (inactive). The GI50 [16] was 1.53 µM (inactive), the GI50 [17] was 0.467 µM (active) and the GI50 [18] was 1.84 µM (inactive). The GI50 [19] was 1.61 µM (inactive), the GI50 [20] was 1.6 µM (inactive) and the GI50 [21] was 1.85 µM (inactive). For the same compound, the GI50 [22] was 1.83 µM (inactive), the GI50 [23] was > 100 µM (inactive) and the GI50 [24] was 1.64 µM (inactive). The GI50 [25] was 1.85 µM (inactive), the GI50 [26] was 1.78 µM (inactive) and the GI50 [27] was 3.53 µM (inactive). For the same compound, the GI50 [28] was 2.21 µM (inactive), the GI50 [29] was 1.04 µM (active) and the GI50 [30] was 6.08 µM (inactive). For the same compound, the GI50 [31] was 1.79 µM (inactive), the GI50 [32] was 1.88 µM (inactive) and the GI50 [33] was 2.39 µM (inactive). For the same compound, the GI50 [34] was 91.8 µM (inactive), the GI50 [35] was 2.14 µM (inactive) and the GI50 [36] was 1.77 µM (inactive). The GI50 [37] was 1.82 µM (inactive), the GI50 [38] was 1.63 µM (inactive) and the GI50 [39] was 1.58 µM (inactive). The GI50 [40] was 1.69 µM (inactive), the GI50 [41] was 2.22 µM (inactive) and the GI50 [42] was 1.58 µM (inactive). The GI50 [43] was 1.85 µM (inactive), the GI50 [44] was 2.14 µM (inactive) and the GI50 [45] was 1.83 µM (inactive). For the same compound, the GI50 [46] was 1.54 µM (inactive), the GI50 [47] was 1.9 µM (inactive) and the GI50 [48] was 1.79 µM (inactive). For the same compound, the GI50 [49] was 1.59 µM (inactive), the GI50 [50] was 1.84 µM (inactive) and the GI50 [51] was 1.81 µM (inactive). For the same compound, the GI50 [52] was 19.5 µM (inactive), the GI50 [53] was 1.92 µM (inactive) and the GI50 [54] was 1.47 µM (inactive). For the same compound, the GI50 [55] was 1.88 µM (inactive).
